In PubChem BioAssay (NCI):
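Each compound was tested at five concentrations against cells in 96-well plates for 48 hours. The concentration for full growth arrest is given as TGI.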

Legend:
Assay in all cases: DTP human tumour cell line panel, 48 h
[1] = tested on: M14 melanoma
[2] = tested on: NCI-H23 lung
[3] = tested on: SR leukemia
[4] = tested on: HS 578T breast
[5] = tested on: SK-MEL-28 melanoma
[6] = tested on: HT29 colon
[7] = tested on: ACHN renal
[8] = tested on: K-562 leukemia
[9] = tested on: SW-620 colon
[10] = tested on: U251 CNS
[11] = tested on: CAKI-1 renal
[12] = tested on: OVCAR-5 ovarian
[13] = tested on: SK-OV-3 ovarian
[14] = tested on: TK-10 renal
[15] = tested on: MDA-MB-435
[16] = tested on: RPMI-8226 leukemia
[17] = tested on: SF-268 CNS
[18] = tested on: SNB-75 CNS
[19] = tested on: HCC-2998 colon

| SMILES | TGI [1] [µM] | TGI [2] [µM] | TGI [3] [µM] | TGI [4] [µM] | TGI [5] [µM] | TGI [6] [µM] | TGI [7] [µM] | TGI [8] [µM] | TGI [9] [µM] | TGI [10] [µM] | TGI [11] [µM] | TGI [12] [µM] | TGI [13] [µM] | TGI [14] [µM] | TGI [15] [µM] | TGI [16] [µM] | TGI [17] [µM] | TGI [18] [µM] | TGI [19] [µM] |
| --- | --- | --- | --- | --- | --- | --- | --- | --- | --- | --- | --- | --- | --- | --- | --- | --- | --- | --- | --- |
| O=C(OCc1ccccc1)N(CCCCN(CCCNC(=O)C(F)(F)F)C(=O)OCc1ccccc1)CCCNC(=O)C(F)(F)F | > 100 | > 100 | > 100 | > 100 | > 100 | > 100 | > 100 | > 100 | > 100 | > 100 | 3.55 | > 100 | > 100 | > 100 | > 100 | > 100 | > 100 | > 100 | > 100 |
| N#CC(C#N)=C1C(=Cc2ccc(OCCCCCCCCCCSSCCCCCCCCCCOc3ccc(C=C4C(=C(C#N)C#N)c5ccccc5C4=C(C#N)C#N)cc3)cc2)C(=C(C#N)C#N)c2ccccc21 | 47.9 | 32.6 | 68 | 52.4 | 52.4 | 34.1 | > 100 | 60.4 | 52.1 | 46.8 | 71.2 | 35.5 | – | > 100 | > 100 | > 100 | 55.1 | > 100 | 28.9 |
| Nc1ncc(Br)c(NCC2(CO)CCC2)n1 | – | > 100 | > 100 | > 100 | > 100 | > 100 | > 100 | > 100 | > 100 | > 100 | > 100 | > 100 | – | > 100 | > 100 | > 100 | > 100 | > 100 | > 100 |
| CC1OC(OC2C(OC(=O)[C@]34CCC(C)(C)C[C@H]3C3=CC[C@@H]5[C@@]6(C)CC[C@H](OC7OC(C(=O)O)C(O)C(O)C7O)C(C)(C)[C@@H]6CC[C@@]5(C)[C@]3(C)C[C@H]4O)OCC(O)C2O)C(O)C(O)C1OC1OCC(OC2OCC(O)C(O)C2O)C(O)C1O (stereo partly specified) | 11.5 | 4.87 | 53.9 | 37.9 | 11.7 | 11 | 15.8 | 47.8 | 23.1 | 21.2 | 21.6 | 20.1 | 26.9 | – | 17.8 | 51.5 | 26.3 | 26.1 | 3.03 |
| CN(C)CCNc1ccc([N+](=O)[O-])c2sc3ccccc3c(=O)c12 | 46.8 | 29.5 | 22.9 | 38.8 | 21.5 | 32.1 | 13.2 | > 100 | > 100 | > 100 | – | 14.6 | > 100 | > 100 | 27.4 | 7.52 | 48.8 | 35.6 | 13.1 |
| C[N+](C)(CCCn1ccnc1[N+](=O)[O-])CCCn1ccnc1[N+](=O)[O-] | > 100 | > 100 | > 100 | > 100 | > 100 | > 100 | > 100 | > 100 | > 100 | > 100 | > 100 | > 100 | > 100 | > 100 | > 100 | > 100 | > 100 | > 100 | – |
| C1=CC2(C=CC13O[C@H](C1CCCCC1)[C@@H](C1CCCCC1)O3)O[C@H](C1CCCCC1)[C@@H](C1CCCCC1)O2 | > 50 | > 50 | > 50 | > 50 | > 50 | > 50 | > 50 | > 50 | > 50 | > 50 | > 50 | > 50 | > 50 | > 50 | > 50 | > 50 | > 50 | > 50 | – |
